Experimental data from the supplement of paper PMC10307832.

Tests used:
Assay in all cases: relative viability (nuclei count vs DMSO), 5 days (fraction); higher = more cells survive
FG-4592 + Dasatinib = compound: Cc1nc(C(=O)NCC(=O)O)c(O)c2ccc(Oc3ccccc3)cc12 [FG-4592] + Cc1nc(Nc2ncc(C(=O)Nc3c(C)cccc3Cl)s2)cc(N2CCN(CCO)CC2)n1 [Dasatinib] (partner 0.075 µM)
In short: (§1)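 Nuclei were stained with Hoechst during a one-step fixation (final 0.05% Triton X-100, 1% formaldehyde, 1 ug/ml Hoechst) carried out 5 days after dosing, then counted on 4× images. The cells, lung cancer lines in 1536-well plates, had been dosed by pin tool the day after seeding with one drug alone or a fixed anchor-drug dose plus five library-drug doses (not always all listed) in √10 steps. Relative viability is the nuclei count in treated wells divided by that in vehicle wells, and each value is the median of duplicate plates.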

IU1-47 + Crizotinib = compound: CC1=CC(=C(N1C2=CC=C(C=C2)Cl)C)C(=O)CN3CCCCC3 [IU1-47] + C[C@@H](Oc1cc(-c2cnn(C3CCNCC3)c2)cnc1N)c1c(Cl)ccc(F)c1Cl [Crizotinib] (partner 1 µM)
In short: as §1

FG-4592 + Navitoclax = compound: Cc1nc(C(=O)NCC(=O)O)c(O)c2ccc(Oc3ccccc3)cc12 [FG-4592] + CC1(C)CCC(c2ccc(Cl)cc2)=C(CN2CCN(c3ccc(C(=O)NS(=O)(=O)c4ccc(N[C@H](CCN5CCOCC5)CSc5ccccc5)c(S(=O)(=O)C(F)(F)F)c4)cc3)CC2)C1 [Navitoclax] (partner 0.5 µM)
In short: as §1

FG-4592 + Luminespib = compound: Cc1nc(C(=O)NCC(=O)O)c(O)c2ccc(Oc3ccccc3)cc12 [FG-4592] + CCNC(=O)c1noc(-c2cc(C(C)C)c(O)cc2O)c1-c1ccc(CN2CCOCC2)cc1 [Luminespib] (partner 0.01 µM)
In short: as §1

Row | Cell Line | relative viability (FG-4592 + Dasatinib; first compound 0.08 µM) | relative viability (FG-4592 + Dasatinib; first compound 0.253 µM) | relative viability (FG-4592 + Dasatinib; first compound 0.8 µM) | relative viability (FG-4592 + Dasatinib; first compound 2.53 µM) | relative viability (FG-4592 + Dasatinib; first compound 8 µM) | relative viability (IU1-47 + Crizotinib; first compound 0.08 µM) | relative viability (IU1-47 + Crizotinib; first compound 0.253 µM) | relative viability (IU1-47 + Crizotinib; first compound 0.8 µM) | relative viability (IU1-47 + Crizotinib; first compound 8 µM) | relative viability (FG-4592 + Navitoclax; first compound 0.08 µM) | relative viability (FG-4592 + Navitoclax; first compound 0.253 µM) | relative viability (FG-4592 + Navitoclax; first compound 0.8 µM) | relative viability (FG-4592 + Navitoclax; first compound 2.53 µM) | relative viability (FG-4592 + Navitoclax; first compound 8 µM) | relative viability (FG-4592 + Luminespib; first compound 0.08 µM) | relative viability (FG-4592 + Luminespib; first compound 0.253 µM) | relative viability (FG-4592 + Luminespib; first compound 0.8 µM) | relative viability (FG-4592 + Luminespib; first compound 2.53 µM) | relative viability (FG-4592 + Luminespib; first compound 8 µM) | relative viability (IU1-47 + Crizotinib; first compound 2.53 µM)
1 | 201T | 0.549 | 0.566 | 0.616 | 0.569 | 0.646 | 1.08 | 1.04 | 1.05 | 1.04 | 1.14 | 1.19 | 1.21 | 1.18 | 1.22 | 1.04 | 0.984 | 1.06 | 1.03 | 1.06 | –
2 | A549 | – | – | – | – | – | 0.685 | 0.847 | 0.607 | 0.579 | 1.25 | 1.21 | 1.27 | 1.28 | 1.08 | – | – | – | – | – | 0.612
3 | A-427 | 0.649 | 0.611 | 0.741 | 0.725 | 0.717 | 1.04 | 0.938 | 0.944 | 0.634 | 0.829 | 0.739 | 0.802 | 1.08 | 0.914 | 0.912 | 0.926 | 0.89 | 1.18 | 1 | –
4 | ABC-1 | 0.532 | 0.463 | 0.48 | 0.59 | 0.463 | 1.12 | 1.13 | 0.796 | 0.8 | – | – | – | – | – | 0.501 | 0.515 | – | 0.413 | 0.42 | –
5 | BEN | 0.323 | 0.348 | 0.262 | 0.365 | 0.305 | 0.841 | 0.99 | 1.03 | 0.752 | 0.0578 | 0.0857 | 0.0654 | 0.0822 | 0.0636 | 0.337 | 0.386 | 0.39 | 0.437 | 0.218 | 0.816
6 | CAL-12T | 0.378 | 0.424 | 0.406 | 0.361 | 0.365 | 0.689 | 0.713 | 0.479 | 0.518 | 1.22 | 1.18 | 1.33 | 1.05 | 0.764 | 0.212 | 0.458 | 0.129 | 0.375 | 0.689 | 0.839
7 | COR-L23 | 0.467 | 0.47 | 0.504 | 0.446 | 0.409 | 0.735 | 0.704 | 0.669 | 0.609 | 0.924 | 0.98 | 1.14 | 0.909 | 0.932 | 0.757 | 0.524 | 0.645 | 0.611 | 0.593 | 0.817
8 | COR-L 105 | 0.309 | 0.306 | 0.294 | 0.258 | 0.286 | 0.793 | 0.839 | 0.767 | 0.627 | 0.777 | 0.709 | 0.919 | 0.595 | 0.74 | 0.779 | 0.696 | 0.752 | 0.847 | 0.776 | 0.94
9 | Calu-6 | – | – | – | – | – | 0.838 | 0.829 | 0.692 | 0.665 | 0.795 | 0.734 | 0.974 | 0.914 | 0.87 | – | – | – | – | – | 1.02
10 | ChaGo-K-1 | 0.584 | 0.577 | 0.516 | 0.542 | 0.592 | 1.04 | 1.21 | 1.24 | 0.954 | 1.04 | 1.03 | 0.708 | 1.15 | 0.54 | 0.522 | 0.548 | 0.594 | 0.702 | 0.459 | 1.31
11 | EBC-1 | – | – | – | – | – | 0.239 | 0.202 | 0.209 | 0.229 | 0.469 | 0.389 | 0.425 | 0.493 | 0.397 | – | – | – | – | – | 0.172
12 | EKVX | 0.629 | 0.555 | 0.53 | 0.486 | 0.495 | 0.981 | 1.14 | 1.05 | 0.793 | 0.848 | 0.813 | 0.855 | 1.09 | 1.04 | 0.842 | 0.807 | 0.81 | 0.891 | 0.9 | 0.892
13 | EMC-BAC-2 | 0.374 | 0.361 | 0.274 | 0.311 | 0.296 | 0.802 | 0.863 | 0.752 | 0.75 | 1.13 | 1.12 | 1.11 | 1.16 | 1.09 | 1.2 | 1.11 | 1.1 | 1.17 | 1.11 | 0.835
14 | EPLC-272H | 0.389 | 0.302 | 0.251 | 0.412 | 0.334 | 0.957 | 0.918 | 0.862 | 0.984 | 1.15 | 1.09 | 0.775 | 1.05 | 1.08 | 0.455 | 0.241 | 0.212 | 0.295 | 0.228 | –
15 | H3255 | 0.361 | 0.418 | 0.417 | 0.404 | 0.48 | 0.989 | 1.07 | 0.908 | 0.807 | 0.554 | 0.387 | 0.523 | 0.596 | 0.6 | 0.891 | 0.804 | 0.848 | 0.945 | 0.875 | 0.778
16 | HARA | 0.272 | 0.208 | 0.266 | 0.24 | 0.234 | 0.945 | 1.17 | 1.29 | 0.719 | 1.15 | 1.09 | – | 1.13 | 1.15 | 0.73 | 0.787 | 0.834 | 0.621 | 0.709 | 1.12
17 | HCC-15 | 0.65 | 0.601 | 0.536 | 0.554 | 0.681 | 0.949 | 0.879 | 0.908 | 0.704 | 0.758 | 0.698 | 0.686 | 0.714 | 0.744 | 0.403 | 0.371 | 0.26 | 0.302 | 0.253 | 0.825
18 | HCC-44 | – | – | – | – | – | 0.801 | 0.784 | 0.809 | 0.799 | 1.01 | 0.935 | 0.997 | 1.11 | 1.03 | 1.05 | 1.01 | – | 0.934 | 1.05 | 0.77
